Experiment [1] has as its target T1, Programmed cell death protein 1/Programmed cell death 1 ligand 1 (Homo sapiens, UniProt Q15116+Q9NZQ7). Nature of the experiment: Inhibition of PD-1/PDL1 protein-protein interaction (unknown origin). The class given is protein-complex assay.
Experiment [2] deals with T1, Programmed cell death protein 1/Programmed cell death 1 ligand 1. Nature of the experiment: Inhibition of PD-1/PDL1 protein-protein interaction (unknown origin) by HTRF assay. The class given is protein-complex assay.

By pIC50 is commonly meant the negative decadic logarithm of the IC50, by convention in mol/L.

pIC50: −log10 of the molar value. Some results are limits rather than exact numbers.

T1 sequence (Q15116 whole entry): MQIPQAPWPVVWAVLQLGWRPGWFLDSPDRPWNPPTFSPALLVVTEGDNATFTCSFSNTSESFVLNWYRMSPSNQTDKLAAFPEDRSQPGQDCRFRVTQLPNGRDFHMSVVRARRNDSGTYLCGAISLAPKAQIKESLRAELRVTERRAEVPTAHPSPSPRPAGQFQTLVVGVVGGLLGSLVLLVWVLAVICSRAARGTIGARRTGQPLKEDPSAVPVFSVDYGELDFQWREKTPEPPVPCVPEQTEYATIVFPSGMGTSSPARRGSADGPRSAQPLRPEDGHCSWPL
T1 sequence (Q9NZQ7 whole entry): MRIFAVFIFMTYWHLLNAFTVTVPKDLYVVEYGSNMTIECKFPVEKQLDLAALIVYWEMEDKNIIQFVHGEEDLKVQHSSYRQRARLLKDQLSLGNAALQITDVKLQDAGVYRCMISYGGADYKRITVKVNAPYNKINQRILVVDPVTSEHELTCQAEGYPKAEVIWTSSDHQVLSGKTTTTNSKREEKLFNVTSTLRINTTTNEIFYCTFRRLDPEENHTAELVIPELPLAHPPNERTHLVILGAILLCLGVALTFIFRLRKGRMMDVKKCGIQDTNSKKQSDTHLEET

Turning to `N#Cc1cncc(COc2cc(OC3CCc4c(-c5ccccc5)cccc43)c(Cl)cc2CN[C@@H](CO)C(=O)O)c1` (stereo partly specified), the pIC50 in experiment [1] is more than 7.00.
In experiment [2], `O=C(O)CNCc1ccc2c(Nc3cccc(-c4ccccc4)c3Cl)noc2c1` showed a pIC50 of 6.14.
On the same count and under the same terms, next, `O=C(O)CNCc1ccc2onc(Nc3cccc(-c4ccccc4)c3Cl)c2c1`: 7.52; `CC(=O)NCCNCc1ccc2c(Nc3cccc(-c4ccccc4)c3Cl)noc2c1`: 5.69; `O=C(O)[C@H](CO)NCc1ccc2onc(Nc3cccc(-c4ccccc4)c3Cl)c2c1`: 7.57.
For `O=C(O)CNCc1ccc2c(Nc3cccc(-c4ccc5c(c4)OCCO5)c3Cl)noc2c1`, in experiment [2], the pIC50 was 6.42.
In the case of `O=C(O)[C@H](CO)NCc1ccc2c(Nc3cccc(-c4ccc5c(c4)OCCO5)c3Cl)noc2c1`, in experiment [2], the pIC50 is 5.76.
Still for that read-out and setting: to `CC(=O)NCCNCc1ccc2onc(Nc3cccc(-c4ccccc4)c3Cl)c2c1` belongs 6.71.
Turning to `OCCNCc1ccc2c(Nc3cccc(-c4ccc5c(c4)OCCO5)c3Cl)noc2c1`, the pIC50 in experiment [2] is 6.12. This pIC50 is 0.59 log units lower than that of the molecule before.
`O=C(O)[C@H](CO)NCc1ccc2onc(Nc3cccc(-c4ccc5c(c4)OCCO5)c3Cl)c2c1` showed a pIC50 in experiment [2] of 7.29.
In turn, `O=C(O)[C@H](CO)NCc1ccc2c(Nc3cccc(-c4ccccc4)c3Cl)noc2c1` showed a pIC50 in experiment [2] of 5.62.
The same measure, in the same setting: to `OCCNCc1ccc2c(Nc3cccc(-c4ccccc4)c3Cl)noc2c1` belongs 5.19; to `O=C(O)C1CCN(Cc2ccc3onc(Nc4cccc(-c5ccccc5)c4Cl)c3c2)CC1`, 6.21; to `CC(=O)NCCNCc1ccc2onc(Nc3cccc(-c4ccc5c(c4)OCCO5)c3Cl)c2c1`, 6.36.
Regarding `O=C(O)C1CN(Cc2ccc3onc(Nc4cccc(-c5ccccc5)c4Cl)c3c2)C1`, the pIC50 in experiment [2] was 6.44.
Still for that read-out and setting: to `O=C(O)CNCc1ccc2onc(Nc3cccc(-c4ccc5c(c4)OCCO5)c3Cl)c2c1` belongs 7.04.
As for `OCCNCc1ccc2onc(Nc3cccc(-c4ccc5c(c4)OCCO5)c3Cl)c2c1`, the pIC50 in experiment [2] was 5.52.
For `Cc1c(/C=C/c2c(Cl)cc(CNC(C)(CO)C(=O)O)cc2C(F)(F)F)cccc1-c1ccc2c(c1)OCCO2` (stereo unspecified), the pIC50 in experiment [1] was 7.74.
With `COC(=O)[C@H](CO)NCc1ccc2onc(Nc3cccc(-c4ccccc4)c3Cl)c2c1`, the pIC50 in experiment [2] is 5.79.
Still for that read-out and setting: to `CC(=O)NCCNCc1ccc2c(Nc3cccc(-c4ccc5c(c4)OCCO5)c3Cl)noc2c1` belongs 6.08; to `OCCNCc1ccc2onc(Nc3cccc(-c4ccccc4)c3Cl)c2c1`, 6.10.
Turning to `Cc1c(NC(=O)c2cccc(CNCCO)n2)cccc1-c1ccccc1`, the pIC50 in experiment [1] was not below 8.00.
`OC1CCN(Cc2ccc3onc(Nc4cccc(-c5ccc6c(c5)OCCO6)c4Cl)c3c2)C1` (racemic): in experiment [2], the pIC50 is 5.89.
Take `OC1CCN(Cc2ccc3c(Nc4cccc(-c5ccccc5)c4Cl)noc3c2)C1` (racemic): in experiment [2], the pIC50 is 5.83.
Take `OC1CCN(Cc2ccc3onc(Nc4cccc(-c5ccccc5)c4Cl)c3c2)C1` (racemic): the pIC50 in experiment [2] was 6.33.
Consider `O=C(O)C1CCN(Cc2ccc3onc(Nc4cccc(-c5ccccc5)c4Cl)c3c2)C1` (racemic), for which, in experiment [2], the pIC50 is 6.35.
The same measure, in the same setting: to `O=C(O)C1CCN1Cc1ccc2onc(Nc3cccc(-c4ccccc4)c3Cl)c2c1` (racemic) belongs 6.32; to `O=C(O)C1CCCN1Cc1ccc2onc(Nc3cccc(-c4ccccc4)c3Cl)c2c1` (racemic), 7.07; to `O=C(O)C1CCCCN1Cc1ccc2onc(Nc3cccc(-c4ccccc4)c3Cl)c2c1` (racemic), 7.15.
For the molecule `OC1CCN(Cc2ccc3c(Nc4cccc(-c5ccc6c(c5)OCCO6)c4Cl)noc3c2)C1` (racemic), in experiment [2], the pIC50 is 5.77.
Consider `O=C(O)C1CCCN(Cc2ccc3onc(Nc4cccc(-c5ccccc5)c4Cl)c3c2)C1` (racemic), for which the pIC50 in experiment [2] is 7.03.

The record behind these values is ChEMBL document CHEMBL5053523, “Design, synthesis, and structure-activity relationship of PD-1/PD-L1 inhibitors with a benzo[d]isoxazole scaffold” (Bioorg Med Chem Lett, 2021).
